These results are taken from patent US7700559B2, “Gonadotropin releasing hormone analogues conjugates with steroid hormones” (Medical Research Council, priority 2003, dated 2010).

The target of data set [1] is T1, type I human GnRH receptor (Homo sapiens, UniProt P30968).
T1 construct: expressed in transfected cells; host or cells: COS-1 cells (membranes)
T1 sequence (P30968 1-328): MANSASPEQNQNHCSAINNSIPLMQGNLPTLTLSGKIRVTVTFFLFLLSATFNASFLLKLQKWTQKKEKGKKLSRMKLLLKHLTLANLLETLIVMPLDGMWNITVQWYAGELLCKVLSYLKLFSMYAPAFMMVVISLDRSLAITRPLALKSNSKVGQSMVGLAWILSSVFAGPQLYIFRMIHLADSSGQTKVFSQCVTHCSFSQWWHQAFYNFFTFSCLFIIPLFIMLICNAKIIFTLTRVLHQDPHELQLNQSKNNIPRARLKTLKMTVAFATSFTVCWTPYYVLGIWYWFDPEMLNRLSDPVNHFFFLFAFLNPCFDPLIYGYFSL
Nature of the data set: Membrane binding assay of GnRH agonist-progesterone conjugate, COS-1 cells transfected with hGnRH-R, 125I[His5,D-Tyr6]GnRH. The conditions noted are these: n=1, data not shown, read-out: ED50, binding to type I human GnRH receptor. Here is the method: Membrane binding assay of GnRH agonist-progesterone conjugates was carried out on COS-1 cells transfected with hGnRH-R. COS-1 cells in 100 mm dishes were washed twice in HEPES modified DMEM and transfected with 15 μg DNA in filter-sterilised DEAE dextran with HEPES buffered saline, penicillin/streptomycin and DMEM. After five hours incubation at 37° C., the media was removed and replaced with DMEM containing penicillin/streptomycin, 2% FCS and 2% chloroquine 10 mM and plates were incubated for a further one hour. The media was aspirated, cells were washed and normal media was added until assay 24 hours later.
Membrane Binding Assay of GnRH agonist-Progesterone Conjugate:
Transfected COS-1 cells were washed in PBS, removed from plates and centrifuged at 1500 rpm for five mins to pellet cells. The PBS was aspirated and the cells were resuspended in homogenization buffer (20 mM Tris, 2 mM MgCl2, pH 7.2), vortexed and left on ice for 10 minutes. The cell suspension was transferred to a 7 ml homogeniser (Jencons (Scientific) Ltd., Leighton Buzzard, Buckinghamshire) and plunged 15 times with a loose plunger and 15 times with a tight plunger. The homogenized cells were then centrifuged at 4° C. for 10 mins at top speed and the supernatant was removed with a vacuum pump. […] Filters were then counted immediately on a gamma counter.

A further data set concerns the target T2, rat type I GnRHR (Rattus norvegicus, UniProt P30969).
T2 construct: expressed in transfected cells
T2 sequence (P30969 1-327): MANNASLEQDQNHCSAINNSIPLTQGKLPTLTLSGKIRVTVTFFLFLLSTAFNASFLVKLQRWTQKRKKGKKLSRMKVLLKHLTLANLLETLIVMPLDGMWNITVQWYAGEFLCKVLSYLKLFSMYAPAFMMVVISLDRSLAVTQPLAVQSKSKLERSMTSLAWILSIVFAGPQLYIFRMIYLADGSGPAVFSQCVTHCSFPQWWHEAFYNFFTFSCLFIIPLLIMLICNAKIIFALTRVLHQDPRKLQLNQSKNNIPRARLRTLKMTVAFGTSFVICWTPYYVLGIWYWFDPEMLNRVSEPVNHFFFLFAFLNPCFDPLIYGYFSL
Description: Total inositol phosphate production in HEK293 cells stably expressing rat type I GnRHR. The format is cell-based. The conditions noted are these: n=2, read-out: EC50, stimulation of inositol phosphate production. Here is the method:
A HEK293 stable cell line expressing the rat type I GnRHR developed in our laboratory was used for the inositol phosphate production assays. This cell line was maintained in DMEM containing 10% fetal calf serum, glutamine and penicillin/streptomycin with the addition of G418 at 500 μg/ml throughout culture. Where required, plates were coated with Poly-L-Lysine to enhance adherence to plasticware during assay.
Measurement of Total Inositol Phosphate Production
Rat type I GnRH receptive expressing HEK293 cells were plated out onto 12 well plates and incubated at 37° C., 5% CO2 for 24 hours, then incubated in special DMEM containing 1% dialysed FCS (with glutamine and penicillin/streptomycin) and 1 μl/well of myo-[2-^3H]inositol for a further 48 hours. After aspiration of media and washing with incubation buffer, a further 500 μl buffer containing 10 mM LiCl was added to the plates and then incubated at 37° C. for 30 mins. 1 μM agonist was added to each well to a final concentration of 0.1 μM and the plates were incubated under the same conditions for a further 1 hour. The reaction was terminated with 500 μl 10 mM formic acid, incubated at 4° C. for 30 mins. […] After addition of formic acid, ammonium formate (1 ml, 0.1M, 1M) and vortexing, 800 μl of the supernatant was counted with scintillation fluid.

Data set [2] addresses progesterone binding globulin (PBG). Description: Plasma protein binding assay, competition with [3H]progesterone in pregnant guinea pig plasma. The conditions noted are these: read-out: IC50, inhibition of [3H]progesterone binding to PBG. The protocol: (§1) Plasma Protein Binding Assay
(§2) Plasma protein binding was determined by the competitive binding of steroid conjugates, in the presence of [1,2,6,7-^3H]progesterone or [^3H]cortisol, to pregnant guinea pig plasma or human pregnant serum respectively. 20 μl serum was diluted with 2 ml dextran-coated charcoal solution (0.25 g dextran T-70, 2.5 g charcoal decolorizing powder, activated acid washed [Merck Ltd., Lutterworth, Leicestershire] in 500 ml PBS) and incubated at room temperature. After 30 mins the suspension was centrifuged at 3000×g for 10 minutes, the supernatant was removed and the pellet was discarded. 100 μl of diluted serum was aliquoted into centrifuge tubes, followed by 1 pmol[^3H]steroid/100 μl PBS. 100 μl PBS (total binding) or 200 pmol/100 μl unlabelled competing ligand ([…]) was added to diluted serum in duplicate. Tubes were vortexed and incubated at room temperature for 1 hour, then for an additional 15 minutes on ice. A further 750 μl dextran-coated charcoal suspension was added and incubated for 10 minutes on ice, followed by centrifugation at 4° C. for 5 minutes. The supernatant fluid was counted.

The target of data set [3] is T3, cortisol binding globulin (CBG) (Homo sapiens, UniProt P08185).
T3 construct: from tissue; host or cells: human pregnant serum (charcoal-stripped, diluted)
T3 sequence (P08185 23-405): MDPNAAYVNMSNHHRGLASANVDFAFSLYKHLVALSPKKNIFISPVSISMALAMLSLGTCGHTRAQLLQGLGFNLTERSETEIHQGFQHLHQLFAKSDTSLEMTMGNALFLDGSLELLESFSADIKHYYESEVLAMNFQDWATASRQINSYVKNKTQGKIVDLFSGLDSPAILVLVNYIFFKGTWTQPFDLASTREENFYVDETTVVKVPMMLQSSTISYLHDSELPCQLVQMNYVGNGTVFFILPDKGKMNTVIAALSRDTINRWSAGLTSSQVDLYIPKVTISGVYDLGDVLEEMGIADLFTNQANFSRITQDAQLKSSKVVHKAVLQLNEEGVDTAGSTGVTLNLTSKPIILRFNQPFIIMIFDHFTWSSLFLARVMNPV
Nature of the data set: Plasma protein binding assay, competition with [3H]cortisol in human pregnant serum. The following applies: data not shown, read-out: IC50, prevention of [3H]cortisol binding. The protocol:
as §1, §2

Data set [4] is described as follows: In vivo male rabbit study, disappearance of iodinated analogue from whole blood. The following applies: iodinated compound i.v. into ear vein, male rabbit, whole blood. The protocol: In Vivo Studies in the Male Rabbit
To determine biological half-life of GnRH agonist-progesterone conjugates, 0.5 ml saline containing approximately 10,000,000 cpm of iodinated [D-Ala^6]GnRH or [D-Lys^6]GnRH-progesterone conjugate was injected as an i.v. bolus into the ear vein of a male rabbit. Rabbits were sedated with 0.4 ml Aceprom 10 (Milborrow Animal Health, Republic of South Africa) injected intramuscularly 3-4 minutes before start of experiment. A repeat injection was carried out after 2 hours. 1 ml blood samples were collected in heparinized tubes from an indwelling cannula placed in a vein of the contralateral ear. Whole blood was counted directly to determine disappearance from circulation. All experiments were carried out in accordance with Republic of South Africa regulations.

`CC(=O)[C@H]1CC[C@H]2[C@@H]3CCC4=CC(=O)CC[C@]4(C)[C@H]3[C@H](OC(=O)CCC(=O)NCCCC[C@@H](NC(=O)[C@H](Cc3ccc(O)cc3)NC(=O)[C@H](CO)NC(=O)[C@H](Cc3c[nH]c4ccccc34)NC(=O)[C@H](Cc3c[nH]cn3)NC(=O)[C@@H]3CCC(=O)N3)C(=O)N[C@@H](CC(C)C)C(=O)N[C@@H](CCCNC(=N)N)C(=O)N3CCC[C@H]3C(=O)NCC(N)=O)C[C@]12C` [GnRH agonist-progesterone conjugate, [DLys^6]GnRH conjugated to 11α-hydroxyprogesterone 11-succinate at the ε amine group of the D-Lys at position 6]: the EC50 in data set [1] was 0.29 nM; on rat type I GnRHR, 0.52 nM. Moreover, the 50% inhibitory concentration (IC50) (in general, the point on the concentration scale where inhibition reaches its midpoint) in data set [2] worked out at 0.29 nM; in data set [3], 1200 nM. The “second phase half-life (metabolism and renal clearance)” value in data set [4] is 53 ± 13 min.
